Substitutions are numbered along the chain they refer to.
Key:
[1] = biological target: T1, mutated lens protein (αB-crystallin R120G) (Homo sapiens, UniProt P02511, R120G); experiment: Intracellular mutated lens protein aggregation inhibition experiment in transfected HeLa cells (Example 21); assay type: cell-based; conditions: 10 μM, treated 3.5 hours, then 6.5 h normal medium, fewer + = better
T1 construct: expressed in transfected cells; host or cells: HeLa
T1 sequence (P02511 1-175 R120G): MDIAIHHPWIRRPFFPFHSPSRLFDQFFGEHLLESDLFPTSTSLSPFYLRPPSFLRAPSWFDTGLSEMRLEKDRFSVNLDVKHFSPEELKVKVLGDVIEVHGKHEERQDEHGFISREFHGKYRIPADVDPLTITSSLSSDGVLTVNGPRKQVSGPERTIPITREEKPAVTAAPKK
Method: In this example, apart of the specific compounds obtained in Example 19 and Example 20 were selected for intracellular mutated lens protein (αB-crystallin R120G) aggregation inhibition experiment (experimental method was described in Chinese patent CN201580057679). The aggregation inhibition activities of compound I and compound II in the present invention on lens protein mutants were evaluated to screen a compound which was effective in treating related disease such as cataract.
The tumor cell line HeLa was selected as a host cell transfected with the mutant lens protein (αB-crystallin […]) expression plasmid, the medium was DMEM with […], and the culture conditions were 37° C., saturated humidity and 5% carbon dioxide cell incubator. Mycoplasma was negative. The transfection process is that the appropriate number of HeLa cells were inoculated on the pre-coated slides. When fully adherent cells grew to about 75% cell density, the expression vector was transfected with liposome. After 4 hours of transfection, the medium was changed to normal medium. Then the HeLa cells were cultured in the cell incubator for 13 hours to induce the expression of exogenous mutant lens protein. After changing the medium, the replaced new medium contained various compounds of the formula I and formula II of the present invention to be tested (DMSO was used as solvent in all mother fluid), wherein the final concentration of each compound was 10 μM, the negative control was 1.5% DMSO solvent, and the positive control was lanosterol (10 μM). The HeLa cells were treated with the medium containing the test compound, 1.5% DMSO solvent and lanosterol for 3.5 hours, respectively, and the normal fresh medium containing no DMSO, test compound or lanosterol was exchanged and the cells were cultured for another 6.5 h, then Anti-p62 antibody and DAPI were used for routine cellular immunofluorescence detection. The field of vision of three positions per slide was randomly selected, the ratio of cells containing aggregated crystalline proteins (lens protein aggregates) was calculated, and the effect of each test compound on intracellular aggregation of mutant lens proteins was finally determined, the results were shown in Table 19.

[2] = Heat stability at 80° C. versus 4° C., HPLC and appearance (Example 18); assay type: physicochemical; conditions: for appearance after heat storage: compared with 4° C.; for content after heat storage / initial experiment purity: HPLC; for initial experiment purity: stored at 4° C.
Method: The heatl stabilities of inotodiol and trametenolic acid were tested, and lanosterol was used as a reference at the same time.

[3] = biological target: T2, wild-type αB lens protein aggregate (WT αB) (Homo sapiens, UniProt P02511); experiment: Dissolution of lens protein aggregates, ThT fluorescence (Example 22); assay type: biochemical; conditions: liposome form, final concentration 125 μM, 24 hours, versus blank liposomes (FIG. 33)
T2 sequence (P02511 1-175): T1 sequence (P02511 1-175 R120G) with G120R
Method: The experimental method was as follows: Inotodiol was used as test compound, and its dissolution effect on wild-type αB lens protein aggregate (WT αB) was measured, and lanosterol was used as positive control.
In the present example, the formulations of pharmaceutical composition in the test group and the control group were liposome, wherein the component of the formulation of test group was 40 mg of DPPC, 10 mg of cholesterol and 10 mg of test compound; the component of the formulation of positive control group was 40 mg of DPPC, 10 mg of cholesterol and 10 mg of lanosterol; the component of formulation of the blank control group was 40 mg of DPPC and 10 mg of cholesterol. […]
The analysis of compound concentration in the liposome formulation: The obtained liposome solution was demulsificated with 4 to 5 volumes of methanol solution to afford clear solution. The concentration of compound in the liposome was determined by HPLC method, and the chromatographic conditions are as follows. […] After the comparative analysis, the concentration of corresponding compound in the liposome preparation was determined.
The induction of protein aggregates is as follows. […] After the treatment, ThT fluorescence was used to detect the effect of different compounds on αB lens protein aggregates.

[4] = Pharmacokinetic study, drug in aqueous humor after eye glass cavity injection (Example 5); assay type: in vivo; conditions: SD rats, 5 μl injected into each glass cavity, detected 10 days after the surgery
Method: SD rats (about 10 weeks old, male or female) were anesthetized by intraperitoneal injection of pentobarbital sodium and pupil was dilated, then eye glass cavity injection surgery was performed. All animals were injected with the same kind of drugs in both eyes. The amount of drug injected into each glass cavity was 5 μl, and the number of test animals per drug formulation (Example 1, Example 2 and Comparative Example 1) was four, and the drug metabolism in the aqueous humor was detected 10 days after the surgery.

[5] = test system: diabetic metabolite cataract; experiment: Therapeutic effect on diabetic metabolite cataract, streptozotocin model (Example 11); assay type: in vivo, SD rats; conditions: right eye of diabetic rat, pictures before and after 2 months of treatment (FIG. 25-29)

## CC(C)(O)C(=O)CC[C@@H](C(=O)O)[C@H]1CC[C@@]2(C)C3=C(CC[C@]12C)[C@@]1(C)CC[C@H](O)C(C)(C)C1CC3 (some centres unmarked) [Compound 20′]
[1]
  Inhibitory effect (percentage of cells containing aggregated proteins): ++ (>30% and <45% of the cells in the field of vision contained protein aggregates)

## C[C@H](C(O)CCC(C)(C)O)[C@H]1CC[C@@]2(C)C3=CCC4C(C)(C)[C@@H](O)CC[C@]4(C)C3=CC[C@]12C (some centres unmarked) [Compound 21]
[1]
  Inhibitory effect (percentage of cells containing aggregated proteins): + (<30% of the cells in the field of vision contained protein aggregates)

## CC(C)(O)CCC[C@@H](C(=O)O)[C@H]1CC[C@@]2(C)C3=CCC4C(C)(C)[C@@H](O)CC[C@]4(C)C3=CC[C@]12C (some centres unmarked) [Compound 21′]
[1]
  Inhibitory effect (percentage of cells containing aggregated proteins): ++ (>30% and <45% of the cells in the field of vision contained protein aggregates)

## C[C@H](C(O)CCC(C)(C)O)[C@H]1CC[C@@]2(C)C3=C(CC[C@]12C)[C@@]1(C)C[C@@H](F)[C@H](O)C(C)(C)C1CC3 (some centres unmarked) [Compound 23]
[1]
  Inhibitory effect (percentage of cells containing aggregated proteins): + (<30% of the cells in the field of vision contained protein aggregates)

## C[C@H](C(O)CCC(C)(C)O)[C@H]1CC[C@@]2(C)C3=C(CC[C@]12C)[C@@]1(C)C[C@@H](F)[C@@H](O)C(C)(C)C1CC3 (some centres unmarked) [Compound 24]
[1]
  Inhibitory effect (percentage of cells containing aggregated proteins): + (<30% of the cells in the field of vision contained protein aggregates)

## C[C@H](C(O)CCC(C)(C)O)[C@H]1CC[C@@]2(C)C3=C(CC[C@]12C)[C@@]1(C)C[C@@H](O)[C@H](O)C(C)(C)C1CC3 (some centres unmarked) [Compound 25]
[1]
  Inhibitory effect (percentage of cells containing aggregated proteins): + (<30% of the cells in the field of vision contained protein aggregates)

## C/C(=C\CC(O)[C@@H](C)[C@H]1CC[C@@]2(C)C3=C(CC[C@]12C)[C@@]1(C)CC[C@H](O)C(C)(C)C1CC3)C(=O)O (some centres unmarked) [Compound 27]
[1]
  Inhibitory effect (percentage of cells containing aggregated proteins): + (<30% of the cells in the field of vision contained protein aggregates)

## C/C(=C\CC(O)[C@@H](C)[C@H]1CC[C@@]2(C)C3=C(CC[C@]12C)[C@@]1(C)CC[C@H](O)C(C)(C)C1CC3)CO (some centres unmarked) [Compound 32]
[1]
  Inhibitory effect (percentage of cells containing aggregated proteins): + (<30% of the cells in the field of vision contained protein aggregates)

## C[C@H](C(O)C/C=C/C(=O)O)[C@H]1CC[C@@]2(C)C3=C(CC[C@]12C)[C@@]1(C)CC[C@H](O)C(C)(C)C1CC3 (some centres unmarked) [Compound 34]
[1]
  Inhibitory effect (percentage of cells containing aggregated proteins): + (<30% of the cells in the field of vision contained protein aggregates)

## C[C@H](C(O)C/C=C/C(=O)O)[C@H]1CC[C@@]2(C)C3=C(CC[C@]12C)[C@@]1(C)C[C@@H](F)[C@H](O)C(C)(C)C1CC3 (some centres unmarked) [Compound 42]
[1]
  Inhibitory effect (percentage of cells containing aggregated proteins): + (<30% of the cells in the field of vision contained protein aggregates)

## CC(C)=CCC(O)[C@@H](C)[C@H]1CC[C@@]2(C)C3=C(CC[C@]12C)[C@@]1(C)CC[C@H](O)C(C)(C)C1CC3 (some centres unmarked) [Inotodiol, inotodiol]
[2]; 80° C. for 1 week
  appearance after heat storage: did not change
[2]; 80° C. for 2 weeks
  appearance after heat storage: began to turn yellow
[2]; 80° C. for 1 day
  content after heat storage: 88%
[2]; 80° C. for 2 day
  content after heat storage: 68%
[2]; 80° C. for 3 day
  content after heat storage: 67%
[2]
  initial experiment purity: 94%
[3]
  ThT fluorescence signal of αB lens protein aggregates: significantly reduce the ThT fluorescence signal
[4]
  decrease of drug concentration in aqueous humor compared with initial concentration immediately after injection: 11%±2.3%
[1]
  Inhibitory effect (percentage of cells containing aggregated proteins): + (<30% of the cells in the field of vision contained protein aggregates)

## CC(C)=CCC[C@@H](C(=O)O)[C@H]1CC[C@@]2(C)C3=C(CC[C@]12C)[C@@]1(C)CC[C@H](O)C(C)(C)C1CC3 (some centres unmarked) [Trametenolic acid, trametenolic acid]
[2]; 80° C. for 1 week
  appearance after heat storage: did not change
[2]; 80° C. for 2 weeks
  purity after heat storage: above 93%
  appearance after heat storage: no significant change in appearance and purity
[2]; 80° C. for 1 day
  content after heat storage: 97%
[2]; 80° C. for 2 day
  content after heat storage: 96%
[2]; 80° C. for 3 day
  content after heat storage: 96%
[2]
  initial experiment purity: 98%
[5]
  turbid area of lens / course of cataract after administration: reduced in a large extent
[4]
  decrease of drug concentration in aqueous humor compared with initial concentration immediately after injection: 8%±1.5%
[1]
  Inhibitory effect (percentage of cells containing aggregated proteins): + (<30% of the cells in the field of vision contained protein aggregates)

Reference: patent US20200384003A1, “TRITERPENOID-CONTAINING PHARMACEUTICAL COMPOSITION AND USE THEREOF” (SHANGHAI LANMU CHEMICALS CO., LTD., priority 2017, published 2020)
